From patent publication US8076359B2, “Renin inhibitors” (Merck Canada Inc., priority 2006, dated 2011)

Key:
[1] = molecular target: T1, human recombinant renin (Homo sapiens, UniProt P00797); assay: Inhibition of human recombinant renin (enzymatic in vitro assay in buffer, Ang I detected by EIA); assay type: biochemical; details: assay buffer PBS, 1 mM EDTA, 0.1% BSA; human recombinant renin 40 pM; 37° C. for 3 h
T1 sequence (P00797 67-406): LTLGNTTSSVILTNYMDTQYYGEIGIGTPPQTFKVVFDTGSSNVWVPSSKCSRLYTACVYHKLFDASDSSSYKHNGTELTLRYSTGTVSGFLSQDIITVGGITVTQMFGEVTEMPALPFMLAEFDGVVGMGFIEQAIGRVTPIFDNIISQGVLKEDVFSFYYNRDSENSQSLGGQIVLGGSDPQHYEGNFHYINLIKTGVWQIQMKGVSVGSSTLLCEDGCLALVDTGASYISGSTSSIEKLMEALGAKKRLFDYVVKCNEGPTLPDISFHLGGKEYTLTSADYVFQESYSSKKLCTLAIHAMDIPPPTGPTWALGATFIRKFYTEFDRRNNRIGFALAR
Protocol: Inhibition of Human Recombinant Renin
The enzymatic in vitro assay was performed in 384-well polypropylene plates (Nunc). The assay buffer consisted of PBS (Gibco BRL) including 1 mM EDTA and 0.1% BSA. The reaction mixture were composed of 47.5 μL per well of an enzyme mix and 2.5 μL of renin inhibitors in DMSO. The enzyme mix was premixed at 4° C. and consists of the following components: • human recombinant renin (40 pM) • synthetic human angiotensin(1-14) (0.5 μM) • hydroxyquinoline sulfate (1 mM) The mixtures were then incubated at 37° C. for 3 h. The enzyme reaction was stopped by placing the reaction plate on wet ice.
(§1) To determine the enzymatic activity and its inhibition, the accumulated Ang I was detected by an enzyme immunoassay (EIA) in 384-well plates (Nunc). 5 μL of the reaction mixture or standards were transferred to immuno plates which were previously coated with a covalent complex of Ang I and bovine serum albumin (Ang I-BSA). 75 μL of Ang I-antibodies in assay buffer above including 0.01% Tween 20 were added and the plates were incubated at 4° C. overnight.
An alternative protocol could be used by stopping the enzymatic reaction with 0.02N final concentration of HCl. 5 μL of the reaction mixture or standards were transferred to immuno plates and 75 μL of Ang I-antibodies in assay buffer above including 0.01% Tween 20 were added and the plates were incubate at RT for 4 h. […]

[2] = molecular target: T2, renin in human plasma (Homo sapiens, UniProt P00797); assay: Inhibition of renin in human plasma (enzymatic in vitro assay, Ang I detected by EIA); assay type: biochemical; details: human plasma from 10 normal donors; human recombinant renin 3 pM; 37° C. for 2 h
T2 construct: host or cells: recombinant enzyme added to human plasma from 10 normal donors
T2 sequence (P00797 67-406): T1 sequence (P00797 67-406)
Protocol: Inhibition of Renin in Human Plasma
The enzymatic in vitro assay was performed in 384-well polypropylene plates (Nunc). The assay buffer consisted of PBS (Gibco BRL) including 1 mM EDTA and 0.1% BSA. The reaction mixture was composed of 80 μL per well of human plasma, enzyme, Ang I-antibodies mix and 5 μL of renin inhibitors in DMSO. The human plasma mix was premixed at 4° C. and consists of • human plasma from 10 normal donors • human recombinant renin (3 pM) • Ang I-antibodies. The mixtures were then incubated at 37° C. for 2 h.
as §1, with “10” for “5”, “70” for “75”, “μL” for “μL of Ang I-antibodies in”, “buffer” for “buffer above including 0.01% Tween 20”, “overnight. The plates were washed 3 times with PBS including 0.01% Tween 20, and then incubated for 2 h at RT with an anti rabbit-peroxidase coupled antibody (WA 934, Amersham).” for “overnight.”

IC50 [1] | IC50 [2] | Structure (SMILES)
0.022 nM | 6 nM | COCCCc1cc(CN(C(=O)[C@H]2CNCC[C@@H]2c2ccc(OCCOc3c(Cl)cc(C)cc3Cl)nc2)C2CC2)cc(OCCOC)c1 [Example 2, (3R,4S)-N-Cyclopropyl-4-{6-[2-(2,6-dichloro-4-methylphenoxy)ethoxy]pyridin-3-yl}-N-[3-(2-methoxyethoxy)-5-(3-methoxypropyl)benzyl]piperidine-3-carboxamide]
0.036 nM | 2.6 nM | COCCCc1cc(CN(C(=O)[C@H]2CNCC[C@@H]2c2ccc(OCCOc3c(Cl)cc(C)cc3Cl)cc2)C2CC2)cc(OC[C@@H]2C[C@H]2CO)c1 [Example 8]
